Source: patent US11266645B2, “Methods for treating lymphoma” (Alexion Pharmaceuticals, Inc., priority 2018, dated 2022)
Like-named read-outs stand apart in the source and are kept apart here.

Tests used:
[1] = system: SYK-mediated BCR signaling; test: Whole blood BCR signaling assay after oral dosing (pSYK Y525/526, pERK Y204, pAKT S473); type: cell-based, human; details: for IC50: Homo sapiens
Procedure: For PD assessments, serial blood samples were drawn into lithium-heparin vacutainer tubes on Day 1 prior to dosing and again at 0.5, 1, 2, and 4 hours post-dose; on Day 8 at pre-dose and 2 hours post-dose; and Day 28 prior to dosing. Multiple assays were performed using the Day 1 and Day 8 PD samples. SYK-mediated BCR signaling in whole blood was measured prior to and post-dosing by stimulating 100 μL whole blood with 2 μL of anti-human IgD (IgG fraction) and 10 μg anti-human IgM for 10 minutes at 37° C., measuring the induction of pSYK Y525/526, pAKT S473, and pERK Y204. Similarly, whole blood was stimulated with 10 ng/mL of IL-2 (JAK1/3-dependent), IL-4 (JAK1/3-dependent), IL-6 (JAK1/TYK2-dependent) or GM-CSF (JAK2-dependent) for 20 minutes, measuring the induction of pSTAT5 Y694 in T-cells and NK cells, the induction of pSTAT6 Y641 in B cells, T-cells, NK cells, and monocytes, the induction of pSTAT3 Y705 in monocytes, B cells, and T-cells, and the induction of pSTAT5 Y694 in monocytes, respectively. […] With blood samples from the CLL patients only, tumor cell surface expression of CD5, CD69, CD86, and CXCR4 pre-dose on days 1 and 28 were monitored. […] For each assay, data were collected using an LSR II instrument (BD Bioscience, San Jose, Calif.) and analyzed using Flowjo software (Flowjo LLC, Ashland, Oreg.). […]
The data were analyzed using the statistical language R and the accessory packages ggplot2 (Wickham, H., Elegant Graphics for Data Analysis. 2016: Springer-Verlag) and drc (Ritz, C., et al., Dose-Response Analysis Using R. PLoS One, 2015. 10(12): p. e0146021). For cell signaling assays, percent inhibition was determined by normalizing the receptor-induced phosphorylation events mean fluorescent intensity (MFI) to that of pre-dose receptor-induced MFI. The resulting relative activities were analyzed by nonlinear regression to a 3-parameter log-logistic function with an upper and lower limit set at 100 and 0%. […] The significance of the relation between maximum tumor response and change in a specific biomarker was evaluated using Spearman-Rank-correlation and p value.

[2] = system: patients with relapsed/refractory Follicular Lymphoma; test: Phase 2a dose expansion study in relapsed/refractory follicular lymphoma, single agent and with rituximab; type: in vivo, human
Procedure: Methods: This is a phase 2a dose expansion study was carried out with cerdulatinib dosed 30 mg orally BID in patients with relapsed/refractory (r/r) B cell lymphoma. Dose reductions were permitted to a minimum of 15 mg BID. Responses of patients to the cerdulatinib treatment and cerdulatinib rituximab combination treatment were assessed by Lugano Classification criteria.
A total of 40 patients were enrolled in the single arm, cerdulatinib treatment cohort and 11 patients were enrolled in the cerdulatinib rituximab combination cohort. Median age was 64 (42-81) and median number of prior therapies was three (1-8). 50 (98%) patients had prior anti-CD20 therapy and 8 (16%) patients had prior PI3K or BTK inhibitors. The most common adverse effects (AEs) of any grade were diarrhea (47%), nausea (37%), lipase increase (29%) and amylase increase (22%). Grade 3+ AEs occurring in more than 5% patients are lipase increase (24%), diarrhea (12%), amylase increase (10%), nausea (8%), hypertension (8%), and neutropenia (6%). Grade 3+ infections occurred in 6 (12%) of patients. One patient had Grade 5 multi-organ failure potentially related to study drug. Amylase and lipase elevations generally were not associated with abdominal pain or pancreatitis. The safety profile in the combination cohort appeared to be similar to what is seen with single-agent cerdulatinib.

[3] = system: SU-DHL6 xenograft; test: SU-DHL6 xenograft in Nude mice; type: in vivo; details: tumors treated with cerdulatinib
Procedure: Xenograft studies in Nude mice were performed to evaluate cerdulatinib and venetoclax in combination. Nude mice were inoculated with […] SU-DHL6 cells subcutaneously. Once tumors reached 200 mm^3, the mice were randomized into 4 groups: vehicle, cerdulatinib alone, venetoclax alone, or a combination of cerdulatinib and venetoclax.

[4] = system: Follicular lymphoma (FL) cell lines SU-DHL6, DOHH2, WSU-FSCCL; test: FL cell line assays (CellTiter Glo, Edu, caspase 3, immunoblot, phosphoflow); type: cell-based, human
Procedure: CellTiter Glo, Edu and caspase 3 assays were used to examine the effects of cerdulatinib alone and in combination with venetoclax. Percent inhibition was determined relative to vehicle control. Edu incorporation and caspase 3 cleavage were performed using FACS-based assays and CellTiter Glo in a 96-well black plate.
Follicular lymphoma (FL) cell lines SU-DHL6, DOHH2, or WSU-FSCCL were treated with cerdulatinib in the presence or absence of venetoclax at the indicated concentrations for 24-72 hours and analyzed by Edu, CellTiter-Glo, Annexin V/PI, and CellTiter-Glo).
Whole cell lysates were subjected to immunoblotting on 12% gels and probed with the indicated antibodies using established protocols. Phosphoflow cytometry was performed on an LSRII following cell fixing in 4% PFA and permeabilzation with 50% methanol. Phospho-antibody staining was performed for 1 hour at room temperature.

[5] = single arm cohort, out of 40 patients

## CCS(=O)(=O)N1CCN(c2ccc(Nc3ncc(C(N)=O)c(NC4CC4)n3)cc2)CC1 [cerdulatinib, 4-(cyclopropylamino)-2-((4-(4-(ethylsulfonyl)piperazin-1-yl)phenyl)amino)pyrimidine-5-carboxamide]
[1]; po, estimated from PK/PD relationships, whole blood, read-out: IC50, measures of BCR-signaling
  IC50: 330 to 730 nM
[1]; following oral dosing, lower and upper limit confidence intervals for ERK and AKT, read-out: IC50 against BCR signaling
  IC50: 170 to 740 nM
[1]; at tolerated exposures
  inhibition of BCR-induced pSYK Y525/526, pERK Y204 and pAKT S473: High level inhibition
[2]; r/r FL, both cohorts together
  AEs of any grade: amylase increase: 22%
  AEs of any grade: lipase increase: 29%
  AEs of any grade: nausea: 37%
  Grade 3+ AEs: amylase increase: 10%
  Grade 3+ AEs: diarrhea: 12%
  Grade 3+ AEs: hypertension: 8%
  Grade 3+ AEs: lipase increase: 24%
  Grade 3+ AEs: nausea: 8%
  Grade 3+ AEs: neutropenia: 6%
  Grade 3+ infections: 12%
  patients with Grade 5 multi-organ failure potentially related to study drug: One
[2]; r/r FL, single-agent and rituximab combination cohorts together
  AEs of any grade: diarrhea: 47%
[2]; single arm cohort, 40 patients
  ORR: 46%
[2]; [5]
  CRs, number of patients: 5
  PRs, number of patients: 13
[3]
  Bim expression in tumors: increase
  MCL-1 in tumors: no change
[4]; FL cell lines
  basal expression of phospho (p)AKT and pERK, anti-IgM and anti-IgG mediated signaling: inhibit
[4]; FL lines
  Bcl-2 expression: minimal impact
[4]; WSU and DHL6 cells
  Bim RNA level: increased
[4]; cerdulatinib alone
  Mcl-1 RNA levels: remained unchanged
[4]; most pronounced in WSU-FSCCL cells
  Mcl-1 expression: down modulation
